According to patent US11099176B2 (priority 2015, dated 2021):
Read-outs that look alike come from different tables or passages of the source.

Legend:
Assay type in all cases: binding
[1] = target: Marinobacter sp. msLacBP6 variant G170C, SEQ ID NO: 36, Acrylodan conjugate; assay: Fluorescence titration of conjugate; details: λ1 518, λ2 490 nm
[2] = target: Marinobacter sp. msLacBP6 variant Y187C (187C), SEQ ID NO: 38, Acrylodan conjugate; assay: Fluorescence titration of conjugate
[3] = target: Marinobacter sp. msLacBP6 variant V192C, SEQ ID NO: 40, Acrylodan conjugate; assay: Fluorescence titration of conjugate; details: read-out: trueKd (lactate); monochromatic, 500 nm
[4] = target: T1, Pseudomonas stuztzeri psLacBP11 variant W195C, SEQ ID NO: 45, Badan conjugate (Stutzerimonas nitrititolerans, UniProt A0ABX9V4I2, W224C); design: key: nb: no binding
T1 construct: Badan on Cys195
T1 sequence (A0ABX9V4I2 entry or part of it W224C): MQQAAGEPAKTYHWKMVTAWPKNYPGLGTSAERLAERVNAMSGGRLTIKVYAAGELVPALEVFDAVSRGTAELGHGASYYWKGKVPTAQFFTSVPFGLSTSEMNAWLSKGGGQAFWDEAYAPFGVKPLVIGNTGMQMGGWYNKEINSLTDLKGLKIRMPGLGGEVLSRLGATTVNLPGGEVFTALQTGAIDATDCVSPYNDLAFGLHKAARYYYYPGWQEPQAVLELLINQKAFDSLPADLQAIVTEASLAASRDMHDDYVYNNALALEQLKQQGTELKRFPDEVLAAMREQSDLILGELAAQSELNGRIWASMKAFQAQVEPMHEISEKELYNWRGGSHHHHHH
Experimental: (§1) 12-, 24-, or 48-point logarithmic titration series were prepared on a Tecan Freedom liquid-handling robot, using an in-house program, ‘TitrationPlate’, that compiles an abstract description of a multi-component titration series into machine instructions for operating the robot. Temperature-dependent fluorescence emission intensities of 20 μL aliquots, each containing 10 μM protein, were measured in 384-well microtiter plates in a LightCycler 480 II (Roche) using excitation and emission wavelengths available for this instrument that most closely matched the optical characteristics of the fluorescent conjugate. Temperatures were advanced in 1K steps. At each temperature, data was collected at 1-second intervals for 60 seconds at which point the signal had relaxed to a steady value associated with the new temperature. […] The in-house program ‘TitrationMeltPlate’ was used to convert these observations into time-independent datasets that record fluorescence as a function of temperature for each well and associate wells with their concentration of titrant and additive. Management tools were developed to maintain a database of titrations and their analyses.
(§2) Ligand- and wavelength-dependent emission intensities were recorded on a Nanodrop3300 (Thermo Scientific) at room temperature. Using the LED closest to the optimal excitation wavelength of the fluorophore (UV, 365 nm; blue, 470 nm; ‘white’, 460-550 nm).
(§3) Monochromatic emission intensities Iλ (these intensities correspond to a bandpass intensity, recorded either with a physical filter in the case of the Roche LightCycler, or by integrating in the interval λ−δ, λ+δ in the case of an emission spectrum), were fit to Iλ=^apoβλ(1−ytrue)+^satβλytrue 1 where ^apoβλ and ^satβλ are the fluorescence baselines associated with the ligand-free and ligand-bound states of the protein, respectively, and ytrue the fractional saturation of the protein (Layton and Hellinga, 2010, Biochemistry, 49, 10831-41). Baseline functions can be constant, linear, or a second-order polynomial.

[5] = target: T2, Rhodobacter sphaeroides rsLacBP12 variant F191C, SEQ ID NO: 46, Acrylodan conjugate (Cereibacter sphaeroides, UniProt Q3IWV8, F228C); design: key: nb: no binding
T2 construct: Acrylodan on Cys191
T2 sequence (Q3IWV8 entry or part of it F228C): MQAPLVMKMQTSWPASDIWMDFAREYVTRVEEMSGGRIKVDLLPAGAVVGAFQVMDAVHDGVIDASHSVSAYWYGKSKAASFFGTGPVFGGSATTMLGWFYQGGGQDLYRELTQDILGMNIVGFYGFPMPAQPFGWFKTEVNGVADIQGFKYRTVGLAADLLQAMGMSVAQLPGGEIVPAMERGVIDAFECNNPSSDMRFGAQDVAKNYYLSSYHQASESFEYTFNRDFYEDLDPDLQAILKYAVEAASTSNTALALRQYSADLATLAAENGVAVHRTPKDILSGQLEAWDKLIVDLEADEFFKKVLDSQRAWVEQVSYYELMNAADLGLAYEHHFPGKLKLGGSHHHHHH
Experimental: as §1, §2, §3

[6] = target: T3, Rhodobacter sphaeroides rsLacBP12 variant F191C, SEQ ID NO: 46, Badan conjugate (Cereibacter sphaeroides, UniProt Q3IWV8, F228C); design: key: nb: no binding
T3 construct: Badan on Cys191
T3 sequence (Q3IWV8 entry or part of it F228C): as above
Experimental: as §1, §2, §3

[7] = target: T4, Thermanaerovibrio acidaminovorans taLacBP14 variant W186C, SEQ ID NO: 48, Acrylodan conjugate (Thermanaerovibrio acidaminovorans, UniProt D1B6P5, C271A/C333A/W212C); design: key: nb: no binding
T4 construct: Acrylodan on Cys186
T4 sequence (D1B6P5 entry or part of it W212C/C271A/C333A): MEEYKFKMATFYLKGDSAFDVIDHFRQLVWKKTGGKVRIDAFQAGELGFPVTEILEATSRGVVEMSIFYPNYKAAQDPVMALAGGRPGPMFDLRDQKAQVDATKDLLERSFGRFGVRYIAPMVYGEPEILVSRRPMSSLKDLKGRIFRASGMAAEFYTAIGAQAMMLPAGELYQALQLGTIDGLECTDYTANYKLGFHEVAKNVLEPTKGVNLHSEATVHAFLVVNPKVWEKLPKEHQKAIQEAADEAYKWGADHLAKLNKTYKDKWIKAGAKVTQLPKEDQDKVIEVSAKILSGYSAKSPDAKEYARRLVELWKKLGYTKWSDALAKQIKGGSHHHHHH
Experimental: as §1, §2, §3

[8] = target: T5, Thermanaerovibrio acidaminovorans taLacBP14 variant W186C, SEQ ID NO: 48, Badan conjugate (Thermanaerovibrio acidaminovorans, UniProt D1B6P5, C271A/C333A/W212C); design: key: nb: no binding; details: λ1 515, λ2 491 nm
T5 construct: Badan on Cys186
T5 sequence (D1B6P5 entry or part of it W212C/C271A/C333A): as above
Experimental: as §1, §2, §3

[9] = target: T6, Flexistipes sinusarabici fsLacBP13 variant W188C, SEQ ID NO: 47, Acrylodan conjugate (Flexistipes sinusarabici, UniProt F8E724, W211C); assay: Fluorescence titration of conjugate
T6 construct: Acrylodan on Cys188
T6 sequence (F8E724 entry or part of it W211C): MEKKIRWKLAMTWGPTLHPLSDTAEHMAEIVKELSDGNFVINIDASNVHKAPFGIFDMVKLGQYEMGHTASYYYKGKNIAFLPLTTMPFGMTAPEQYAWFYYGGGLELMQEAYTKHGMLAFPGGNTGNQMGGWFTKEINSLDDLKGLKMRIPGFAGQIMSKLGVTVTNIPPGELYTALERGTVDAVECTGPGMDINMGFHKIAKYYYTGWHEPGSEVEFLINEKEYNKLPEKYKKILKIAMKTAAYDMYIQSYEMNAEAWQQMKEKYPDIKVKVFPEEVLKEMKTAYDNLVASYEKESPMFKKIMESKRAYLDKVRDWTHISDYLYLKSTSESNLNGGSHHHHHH

[10] = target: T7, Flexistipes sinusarabici fsLacBP13 variant W188C, SEQ ID NO: 47, Badan conjugate (Flexistipes sinusarabici, UniProt F8E724, W211C); assay: Fluorescence titration of conjugate
T7 construct: Badan on Cys188
T7 sequence (F8E724 entry or part of it W211C): as above

[11] = target: Marinobacter sp. msLacBP6 variant 187C, F68M, SEQ ID NO: 50, Acrylodan conjugate; assay: Fluorescence titration of conjugate (affinity tuning); details: λ1 459, λ2 516 nm
[12] = target: Marinobacter sp. msLacBP6 variant 187C, F68L, SEQ ID NO: 49, Acrylodan conjugate; assay: as above; details: λ1 459, λ2 516 nm
[13] = target: Marinobacter sp. msLacBP6 variant 187C, L70I, SEQ ID NO: 52, Acrylodan conjugate; assay: as above; details: λ1 452, λ2 582 nm
[14] = target: Marinobacter sp. msLacBP6 variant 187C, L70I, SEQ ID NO: 52, Badan conjugate; assay: as above; details: λ1 460, λ2 537 nm
[15] = target: Marinobacter sp. msLacBP6 variant 187C, D220E, SEQ ID NO: 56, Acrylodan conjugate; assay: as above; details: λ1 483, λ2 510 nm

C[C@H](O)C(=O)O [lactate]
Kd ([1]; read-out: appKd (lactate)): 10 µM
Kd ([1]; read-out: trueKd (lactate)): 5 µM
Kd ([2]; read-out: appKd (lactate), approximate, text statement for Acrylodan and Badan conjugates): ~400 µM
Kd ([2]; read-out: appKd (lactate), λ1 452, λ2 482 nm as printed in Table 5): 400 µM
Kd ([2]; read-out: appKd (lactate), λ1 452, λ2 582 nm (FIG. 5A, Table 7)): 400 µM
Kd ([2]; read-out: appKd (lactate), λ1 483, λ2 451 nm (Table 6)): 230 µM
Kd ([2]; read-out: trueKd (lactate), λ1 452, λ2 482 nm as printed in Table 5): 300 µM
Kd ([2]; read-out: trueKd (lactate), λ1 452, λ2 582 nm (FIG. 5A, Table 7)): 300 µM
Kd ([2]; read-out: trueKd (lactate), λ1 483, λ2 451 nm (Table 6)): 350 µM
Kd [3]: 20 µM
appKd (lactate) [4]: nb
trueKd (lactate) [4]: nb
appKd (lactate) [5]: nb
trueKd (lactate) [5]: nb
appKd (lactate) [6]: nb
trueKd (lactate) [6]: nb
appKd (lactate) [7]: nb
trueKd (lactate) [7]: nb
appKd (lactate) [8]: nb
trueKd (lactate) [8]: nb
Kd [9]: > 100000 µM
Kd ([9]; read-out: trueKd (lactate), λ1 482, λ2 450 nm): > 100000 µM
Kd [10]: > 100000 µM
Kd ([10]; read-out: trueKd (lactate), λ1 483, λ2 466 nm): > 100000 µM
Kd ([11]; read-out: appKd (lactate)): 700 µM
Kd ([11]; read-out: trueKd (lactate)): 500 µM
Kd ([12]; read-out: appKd (lactate)): 600 µM
Kd ([12]; read-out: trueKd (lactate)): 500 µM
Kd ([13]; read-out: appKd (lactate)): 400 µM
Kd ([13]; read-out: trueKd (lactate)): 300 µM
Kd ([14]; read-out: appKd (lactate)): 300 µM
Kd ([14]; read-out: trueKd (lactate)): 200 µM
Kd ([15]; read-out: appKd (lactate)): 5100 µM
Kd ([15]; read-out: trueKd (lactate)): 4000 µM
